Source: US20260265055A1, “Sulfine-Based Compounds for Generating Hydrogen Persulfide” (Brown University, priority 2023, published 2026)

Key:
[1] = Monitoring H2S2 formation from the TTS-TAGDD hybrid compound 3 (SSP4, 12 h); conditions: over 12 hours
Procedure: Monitoring H2S2 formation from the TTS-TAGDD hybrid compound 3: TTS and 3 were prepared as 1 mM solutions in DMSO. L-cysteine and Na2S2 were prepared at 4 mM and 1 mM in MilliQ H2O, respectively. SSP4 was dissolved in DMSO to obtain a 200 μM stock solution. CTAB was dissolved in ethanol to yield a 2 mM stock solution. 50 mM PBS buffer (pH 7.4) was added to individual wells of a black polystyrene, flat-bottomed clear 96-well plate, followed by TTS (25 μM) or 3 (25 μM) then cysteine (100 μM) or Na2S2 (25 μM). Samples were mixed by pipetting up and down and incubated in the dark at room temperature (rt) for 30 min. Next, CTAB (50 μM) was added to all wells followed by SSP4 (5 μM), and samples were mixed by pipetting up and down. Samples were then incubated in the dark at room temperature for another 30 min before being measured on a Molecular Devices SpectraMax iD3 Multi-Mode Microplate Reader (fluorescence mode; kinetics measurement type; emission 535 nm; excitation 485 nm; integration time […], low PMT sensitivity, attenuation 1, read height 1.00 mm; total run time: 12 hours; 25 cycles; interval: 0.5 hours). Data was graphed as a time dependent fluorescence response, with F0 as the SSP4 only condition. The fluorescence of Na2S2 over time was not represented in the line graph presented due to the compound's known instability. Data obtained from the 12 h time point including from Na2S2 was also represented in a bar graph for greater clarity. Results were expressed as mean±SEM (n=3).

GAPDH = molecular target: T1, GAPDH (Oryctolagus cuniculus, UniProt P46406); test: GAPDH protein S-persulfidation (SSP4 fluorescence, LC-MS/MS); assay type: biochemical, rabbit; conditions: reduced GAPDH 100 μM treated with the reagent only (1 mM)
T1 construct: GAPDH (from rabbit muscle, #G2267, Sigma-Aldrich); purchased Sigma-Aldrich G2267; host or cells: rabbit muscle (tissue-purified)
Procedure: One of the primary functions of H2S2 is to induce protein S-persulfidation. Existing methods treat proteins with Na2S2 directly to obtain the persulfidated proteins. The present disclosure contemplates the use of TTS and H2S to persulfidate proteins as a comparison with Na2S2. GAPDH was used as the protein model and its persulfidation was evaluated by SSP4 using a protocol described in Shieh, M. et al., Shining a light on SSP4: a comprehensive analysis and biological applications for the detection of sulfane sulfurs. Redox Biol. 2022, 56, 102433 and Ni, X. et al., A sweet H2S/H2O2 dual release system and specific protein S-persulfidation mediated by thioglucose/glucose oxidase. J. Am. Chem. Soc. 2021, 143, 13325-13332. Reduced GAPDH (100 μM) was individually treated with 10 eq. of TTS+Na2S or Na2S2, as well as control reagents (TTS or Na2S only). The protein samples were then purified using Zeba Spin Desalting Columns (7K MWCO), diluted (to 10 μM), and treated with SSP4 (5 μM). Fluorescence signals were recorded to reflect persulfidation levels. […] To provide further evidence of persulfidation in the GAPDH system, TTS+Na2S-treated GAPDH was alkylated with HPE-IAM to stabilize the protein persulfides.
216 μL of PBS (50 mM, pH 7.4) was added to 3.9 mg of GAPDH (from rabbit muscle, #G2267, Sigma-Aldrich) to obtain a concentration of 500 μM (MW: 36 kDa). DTT (10 mM in DMSO, 11.35 μL) was added for a final equal concentration with the GAPDH. The solution was incubated in the dark at room temperature for 30 min. Zeba 7K MWCO spin columns were prepared and used according to manufacturer's instructions with 3 PBS washes. Excess reductant was removed by column purification with the Zeba 7K MWCO columns. The resulting reduced protein concentration was determined by the absorbance at 280 nm (εmM=30.4 mM-1 cm-1) using the Nanodrop One Microvolume UV-Vis Spectrophotometer (ThermoFisher Scientific). For controls, reduced GAPDH was treated with NEM (1:5 equiv.) and incubated at rt in the dark for 30 min before excess NEM was removed by the Zeba 7K MWCO columns. Next, the reduced protein was diluted to a final concentration of 100 μM in a final volume of 100 μL and treated with TTS (10 μL of 10 mM in DMSO for a final concentration of 1 mM), Na2S (10 μL of 10 mM in MilliQ H2O for a final concentration of 1 mM), both TTS and Na2S, or Na2S2 (10 μL of 10 mM in MilliQ H2O for a final concentration of 1 mM). For example, if the reduced protein (361 μM) was only to be treated with TTS, 62.3 μL of PBS (50 mM, pH 7.4) would first be added to an Eppendorf tube, followed by 27.7 μL of protein, and followed by 10 μL of TTS. TTS+Na2S and Na2S2 samples were also prepared at the concentrations above without any protein, where PBS (50 mM, pH 7.4) was used in place of the proteins (volume-wise). Samples were incubated at room temperature for 30 min in the dark before being purified by Zeba 7K MWCO columns (three times to ensure proper removal of excess treatment molecules) and quantified by absorbance. […] All samples were then incubated with SSP4 (5 μL of 100 μM in DMSO for a final concentration of 5 μM) in individual wells of a black clear flat bottom 96-well plate. The final volume was 100 μL. For example, if the persulfidated protein (99.5 μM) was to be examined, 84.95 μL of PBS (50 mM, pH 7.4) would first be added to a well, followed by 10.05 μL of protein, and then followed by 5 μL of SSP4. Incubation occurred at room temperature in the dark for 30 min before being measured on the SpectraMax iD3 microplate reader (ex: 485 nm; em: 525 nm).

HeLa cells = test: Live cell imaging of H2S2 formation with SSP4; assay type: cell-based; conditions: compound only, 30 min
Procedure: HeLa cells were seeded at ~7000 cells/well in a 96-well clear flat-bottomed BioLite plate (ThermoFisher Scientific, #130188) in DMEM/F12 (1:1) (Gibco, Invitrogen, #11330-032) medium supplemented with 10% fetal bovine serum (FBS) at 37° C., 5% CO2 overnight.
Preparation before cell treatment: Na2S and Na2S2 stocks were prepared at 10 mM in sterile 1×PBS. TTS and TT were prepared at 10 mM concentrations in DMSO. They were then diluted to 50 μM concentrations in serum-free Fluorobrite DMEM in individual Eppendorf tubes (0.5% DMSO). Na2S (final concentration=100 μM) was added to the Eppendorf tube containing Fluorobrite DMEM and TTS or TT immediately before being added to the cells. Compounds were mixed by pipetting up and down prior to cell addition.
Cell treatment: Culturing media was aspirated from all wells, and cells were washed twice with 1×PBS. Compounds were added to cells (200 μL/well) and incubated for 30 min at 37° C., 5% CO2. While cells were incubating, SSP4 treatment was prepared by first adding 5 mM CTAB in ethanol to Fluorobrite DMEM followed by 6.125 mM SSP4 in DMSO to final concentrations of 100 μM and 5 μM, respectively, in a tube. The final volume was 5 mL (0.08% DMSO). Compounds were mixed by pipetting up and down prior to cell addition. After incubation, media was aspirated, and cells were washed twice with 1×PBS. SSP4 treatment was added to all wells (100 μL/well), and cells were incubated for 30 min at 37° C., 5% CO2 for 30 min. Media was then aspirated, and cells were washed three times with 1×PBS. Fluorobrite DMEM was added to all wells before imaging on the Keyence All-in-One Fluorescence Microscope (BZ-X810) (excitation: 470/40 nm; emission: 525/50 nm).
As shown in FIGS. 4(A)-(D), HeLa cells were treated with TTS, TTS+H2S, or TT for 30 min before the fluorescent sensor SSP4 was applied to the cells to monitor the formation of H2S2. […] Na2S2 was used as the positive control in this study (FIG. 4D). Other control studies including TT+H2S, H2S only, and SSP4 only were also performed. […] FIG. 4H is a graph of fluorescence intensities of SSP4 staining. Data are mean values ±SEM calculated using ImageJ. (n=9, where three different images were obtained from each of three samples and quantified).

T1 sequence (P46406 whole entry): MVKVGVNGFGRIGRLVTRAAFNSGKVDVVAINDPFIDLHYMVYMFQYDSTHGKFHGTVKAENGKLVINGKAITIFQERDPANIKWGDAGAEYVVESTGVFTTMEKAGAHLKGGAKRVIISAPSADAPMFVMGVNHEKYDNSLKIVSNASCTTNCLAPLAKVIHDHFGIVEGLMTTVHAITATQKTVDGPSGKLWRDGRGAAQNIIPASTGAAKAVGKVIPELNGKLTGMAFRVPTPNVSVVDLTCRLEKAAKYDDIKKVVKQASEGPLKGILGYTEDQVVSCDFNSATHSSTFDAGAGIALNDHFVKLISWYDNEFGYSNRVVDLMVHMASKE

Compound | H2S2 formation monitored by SSP4 signals ([1]; 25 μM compound + Cys 100 μM) | SSP4 fluorescence ([1]; 25 μM compound only) | SSP4 fluorescence of persulfidated GAPDH (GAPDH) | SSP4 fluorescence in HeLa cells (HeLa cells)
CC(=O)SC(SC(C)=O)c1cccc(OC(=O)c2ccc(=S=O)sc2)c1 [Compound 3] | steady and continuous H2S2 formation | did not give any notable fluorescence |  | 
[Na+].[Na+].[S-][S-] [Na2S2, reference compound] |  |  | strong fluorescence | 
[Na+].[Na+].[S-2] [Na2S, reference compound] |  |  | did not give any notable fluorescence | Obvious fluorescence in these samples was not observed
